Test results: patent publication US20170239351A1, “Therapeutic Combinations of a BTK Inhibitor, a PI3K Inhibitor, a JAK-2 Inhibitor, a PD-1 Inhibitor, and/or a PD-L1 Inhibitor” (Acerta Pharma B.V., priority 2014, published 2017)

What was measured:
CLL = experiment: Clinical study of Formula (XVIII) in CLL; type: in vivo
BTK = BTK (Homo sapiens, UniProt Q06187); experiment: BTK target occupancy in relapsed/refractory CLL patients; type: in vivo; settings: at lower dosage versus ibrutinib
KPC pancreatic cancer = KPC pancreatic cancer model; settings: in vivo
[1] = system: regulatory T cell (Treg) development; experiment: Regulatory T cell (Treg) development; type: cell-based
CD8^+ T cell = experiment: CD8+ T cell viability; type: cell-based
CD8^+ T cell function [2] = experiment: Cytotoxicity assay for CD8+ T cell function; type: cell-based; settings: relative to vehicle
CD8^+ T cell function [3] = experiment: IFN-γ level measurements for CD8+ T cell function; type: cell-based; settings: relative to vehicle
Brain penetration study = settings: in vivo
pancreatic cancer = experiment: KPC pancreatic cancer model (spontaneously appearing tumors); type: in vivo, KPC mice; settings: 15 mg/kg BID oral
Description: The KPC mouse model recapitulates many of the molecular, histopathologic, and clinical features of human disease (Westphalen and Olive, Cancer J. 2012, 18, 502-510). Combination therapy with gemcitabine was also evaluated in this model. Mice were enrolled after identification of spontaneously appearing tumors in the pancreas that were ≧100 mm^3 (as assessed by high-resolution ultrasonography).

B cell lymphoma = experiment: Veterinary clinical trial in canine B cell lymphoma; type: in vivo, companion dogs
From the text: Canine B cell lymphoma exists as a pathological entity that is characterized by large anaplastic, centroblastic or immunoblastic lymphocytes with high proliferative grade, significant peripheral lymphadenopathy and an aggressive clinical course. While some dogs respond initially to prednisone, most canine lymphomas progress quickly and must be treated with combination therapies, including cyclophosphamide, vincristine, doxorubicin, and prednisone (CHOP), or other cytotoxic agents. In their histopathologic features, clinical course, and high relapse rate after initial treatment, canine B cell lymphomas resemble diffuse large B cell lymphoma (DLBCL) in humans. Thus, responses of canine B cell lymphomas to experimental treatments are considered to provide proof of concept for therapeutic candidates in DLBCL.
Enrollment has completed for both arms.
Intra-subject dose escalation was allowed. Six of the 11 dogs that initiated at 2.5 or 5 mg/kg once daily were escalated and completed the study with dosages of 10 mg/kg twice daily. Among all the dose cohorts, 8 dogs had shrinkage of target lesions >20%; the best tumor responses were between 45-49% reduction in the sum of target lesions in two dogs. […] CR were defined as disappearance of all evidence of disease per evaluator judgment, and absence of new lesions. Vali, et al., Vet. Comp. Oncol. 2010, 8, 28-37. […]

[4] = system: human platelet-mediated thrombosis; set-up: species or system VWF HA1 mice (human platelets); settings: in vivo
Description: […]. Injury to the vessel wall of arterioles ([…] diameter) was performed using a pulsed nitrogen dye laser (440 nm, Photonic Instruments) applied through a 20× water-immersion Olympus objective (LUMPlanF1, 0.5 numerical aperature (NA)) of a Zeiss Axiotech vario microscope. Human platelet and wall interactions were visualized by fluorescence microscopy using a system equipped with a Yokogawa CSU-22 spinning disk confocal scanner, iXON EM camera, and 488 nm and 561 nm laser lines to detect BCECF-labeled and rhodamine-labeled platelets, respectively (Revolution XD, Andor Technology). The extent of thrombus formation was assessed for 2 minutes after injury and the area (μm^2) of coverage determined (Image IQ, Andor Technology).
. The BTK inhibitor-treated human platelets were fluorescently labeled and infused continuously through a catheter inserted into the femoral artery. Their behavior in response to laser-induced vascular injury was monitored in real time using two-channel confocal intravital microscopy (Furie and Furie, J. Clin. Invest. 2005, 115(12), 2255-62). Upon induction of arteriole injury untreated platelets rapidly formed thrombi with an average thrombus size of […] (mean±s.e.m.), as shown in FIG. 124 and FIG. 125. […]. […]. […]

NK cells [5] = experiment: Antibody-stimulated NK cell degranulation (CD107a), flow cytometry; type: cell-based, human; settings: DHL-4 target cells
Raji cells = experiment: Rituximab ADCC assay (51Cr release), healthy donor NK cells; type: cell-based, human; settings: 1 μM
[6] = In vitro metabolism in hepatocytes with 14C-labeled drug; type: in vitro ADME, mouse, rat, dog, rabbit, monkey, and human
NSCLC lung tumors = experiment: Genetic tumor model of NSCLC (KrasLA2); type: in vivo, mice; settings: 15 mg/kg
From the text: The model is designed to have sporadic expression in single cells of G12D mutant Kras off its own promoter triggered by spontaneous intrachromosomal recombination. Johnson, et al. Nature 2001, 410, 1111-16. While the mutant Kras protein is expressed in a few cells in all tissues, tumor development is seen only in the lung at high penetrance.

NK cells [7] = experiment: Whole blood NK cell degranulation/ADCC assay with obinutuzumab-opsonised MEC-1 cells; type: cell-based, human; settings: CD56+/CD107a+ NK cells; n=3 experiments
relapsed/refractory CLL = settings: human, in vivo
[8] = Respiratory function study (GLP safety pharmacology); settings: doses through 300 mg/kg
[9] = Cardiovascular function study in awake telemeterized animals; settings: single doses through 30 mg/kg

BTK, sequence (Q06187 whole entry): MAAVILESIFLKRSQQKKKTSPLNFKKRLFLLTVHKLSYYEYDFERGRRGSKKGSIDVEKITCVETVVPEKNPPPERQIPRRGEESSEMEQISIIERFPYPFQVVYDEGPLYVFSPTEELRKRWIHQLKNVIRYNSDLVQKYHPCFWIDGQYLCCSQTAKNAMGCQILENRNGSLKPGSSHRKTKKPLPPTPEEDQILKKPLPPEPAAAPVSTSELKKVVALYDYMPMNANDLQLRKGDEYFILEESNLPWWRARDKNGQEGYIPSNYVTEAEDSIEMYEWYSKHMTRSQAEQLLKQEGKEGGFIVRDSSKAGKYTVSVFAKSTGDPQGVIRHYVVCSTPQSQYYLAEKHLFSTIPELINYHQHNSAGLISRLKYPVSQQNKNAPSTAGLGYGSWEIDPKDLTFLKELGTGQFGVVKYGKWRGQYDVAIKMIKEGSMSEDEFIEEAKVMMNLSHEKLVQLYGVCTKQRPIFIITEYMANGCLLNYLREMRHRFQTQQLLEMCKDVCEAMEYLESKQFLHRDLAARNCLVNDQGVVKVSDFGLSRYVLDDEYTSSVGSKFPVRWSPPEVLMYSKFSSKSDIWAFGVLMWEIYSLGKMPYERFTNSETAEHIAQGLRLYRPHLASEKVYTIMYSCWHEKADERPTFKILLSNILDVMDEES

## CC#CC(=O)N1CCC[C@H]1c1nc(-c2ccc(C(=O)Nc3ccccn3)cc2)c2c(N)nccn12 [Formula (XVIII), (S)-4-(8-amino-3-(1-(but-2-ynoyl)pyrrolidin-2-yl)imidazo[1,5-a]pyrazin-1-yl)-N-(pyridin-2-yl)benzamide]
CLL; CLL patients treated
  apoptosis: increased apoptosis
CLL; CLL patients, compared with ibrutinib
  sum of the product of greatest diameters (SPD): decreases more rapidly
CLL; CLL patients, relative to ibrutinib data of Byrd, et al.
  absolute lymphocyte count (ALC): much smaller relative increase and much faster decrease
CLL; patients treated
  CCL2 levels: decrease in CCL2 levels
  CXCL12 levels: decrease in CXCL12 levels
BTK
  BTK target occupancy: improved BTK target occupancy
KPC pancreatic cancer
  immunosuppressive MDSCs (Gr1+Ly6CHi) in tumor tissues: significantly reduced
  immunosuppressive TAMs (CD11b+Ly6ClowF4/80+Csf1r+) in tumor tissues: significantly reduced
  immunosuppressive Tregs (CD4+CD25+FoxP3+) in tumor tissues: significantly reduced
[1]
  effect on Treg development: no effect on regulatory T cell (Treg) development
CD8^+ T cell
  effect on CD8+ T cell viability: no effect on CD8^+ T cell viability
CD8^+ T cell function [2]
  CD8+ T cell function as measured by % cytotoxicity: no effect on CD8^+ T cell function
CD8^+ T cell function [3]
  CD8+ T cell function as measured by IFN-γ level: no effect on CD8^+ T cell function
Brain penetration study
  brain penetration (blood-brain barrier): crosses the blood-brain barrier
Pancreatic cancer
  CD8 cells in tumor tissues: significant increase
  immunosuppressive TAMs, MDSCs and Tregs in tumor tissues: significantly reduced
  survival at day 14: 6/6
B cell lymphoma; Arm 1: 21 dogs, Arm 2: 10 dogs
  complete responses (CR): not observed
B cell lymphoma; dog, in vivo
  Median time to best response: 7 days
[4]
  effect on thrombus formation: does not interfere with thrombus formation
NK cells [5]
  inhibition of rituximab-stimulated NK cell degranulation: < 2%
Raji cells
  effect on rituximab-mediated ADCC: not inhibited
[6]
  metabolites found: two mono-oxidized metabolites and a glutathione conjugate
  unique human metabolite: No unique human metabolite was identified
NSCLC lung tumors
  number of tumors: fewer overall tumors
  tumor volumes versus vehicle: significant decrease in tumor volumes
NK cells [7]
  reduction of obinutuzumab-stimulated NK cell degranulation: minimal effect
relapsed/refractory CLL
  maximum tolerated dose (MTD): not reached
[8]
  respiratory function: no treatment-related adverse effects
[9]
  body temperature, cardiovascular, or ECG (including QT interval) parameters: no meaningful changes
